Laboratory results taken from US20090163461A1, “Ligand for Vesicular Acetylcholine Transporter” (priority 2005, published 2009).

Key:
VAChT = test: PET brain imaging of learning disability model (neurolysis) monkeys and healthy monkeys; type: in vivo, monkey; conditions: 185-740 MBq i.v., images 15 minutes to 60 minutes after administration
Procedure: 185-740 MBq of (−)-[^11C]-o-MeVES was administered to a vein of each of learning disability model monkeys (neurolysis monkeys) created by selectively destroying the p75NTR positive cells (ACh neurons) in the right hemisphere of the brain with 192-Saporin (manufactured by Advanced Targeting Systems) and healthy monkeys, and image data were collected using PET for animals (PET; manufactured by Hamamatsu Photonics K.K., SHR-7700) at 10 seconds to 91 minutes after administration. The image data obtained at 15 minutes to 60 minutes after administration were picturized; the photographs thus obtained are shown in FIG. 4.

VAChT in the brain = biological target: T1, VAChT in the brain (Rattus norvegicus, UniProt Q62666); test: Rat brain ex vivo autoradiography; type: in vivo; conditions: 110-120 MBq i.v., 15 or 30 minutes after administration
T1 construct: from tissue; host or cells: brain of living rats, tissue counted or sectioned after killing
T1 sequence (Q62666 1-530): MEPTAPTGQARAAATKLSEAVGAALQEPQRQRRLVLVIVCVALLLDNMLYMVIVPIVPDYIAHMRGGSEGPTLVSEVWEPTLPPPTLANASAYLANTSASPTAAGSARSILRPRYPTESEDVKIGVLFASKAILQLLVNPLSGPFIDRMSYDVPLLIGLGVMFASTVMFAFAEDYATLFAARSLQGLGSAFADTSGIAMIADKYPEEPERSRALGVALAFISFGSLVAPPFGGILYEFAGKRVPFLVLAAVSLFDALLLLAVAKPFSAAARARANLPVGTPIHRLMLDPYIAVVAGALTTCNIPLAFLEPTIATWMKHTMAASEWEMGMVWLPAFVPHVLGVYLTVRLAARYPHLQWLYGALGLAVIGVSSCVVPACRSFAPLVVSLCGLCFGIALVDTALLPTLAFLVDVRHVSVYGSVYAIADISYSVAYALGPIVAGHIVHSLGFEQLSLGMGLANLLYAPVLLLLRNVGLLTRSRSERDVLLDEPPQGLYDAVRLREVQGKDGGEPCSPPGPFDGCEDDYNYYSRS
Procedure: To the caudal vein of each rat, 110-120 MBq of (−)-[^11C]-o-MeVES was administered, and the rats were killed by cervical dislocation and had the brain extirpated 15 minutes after administration for the first rat, or 30 minutes after administration for the second rat. The extirpated brain was immediately frozen with dry ice, and a brain section 20 μm in thickness was prepared using a cryomicrotome. The brain section was mounted on a glass plate, this section was dried on a hot plate (60° C.), and images of radioactivity distribution were obtained by radioluminography.

[1] = Tissue distribution of radioactivity after intravenous injection in rats; type: in vivo; conditions: rat
Procedure: From the tail vein of each rat, an injection containing 20 MBq of (−)-[^11C]-o-MeVES (0.2 ml) was administered. At 5 minutes, 15 minutes, 30 minutes, and 60 minutes after administration, the rats were killed by cervical dislocation, and blood was drawn from the heart using a syringe, after which tissues such as the heart, lungs, liver, and brain were extirpated, and the radioactivity in each tissue was measured using a gamma counter. Each tissue was also weighed.

For `[11CH3]c1ccccc1C1CCN(C2CCCC[C@H]2O)CC1` (single isomer, unassigned; (-)) [(−)-[^11C]-o-MeVES, (−)-[^11C]-2-(4-(2-methylphenyl)piperidino)cyclohexanol], the “RI accumulation in healthy monkeys (PET)” value (VAChT; healthy monkeys) was “no change in the accumulation”, the “RI accumulation in the cerebral cortex on the neurolysis side compared to the healthy side (PET)” value (VAChT; neurolysis monkeys) was “significant reduction in RI accumulation” and the “local distribution in the brain (autoradiography)” value (VAChT in the brain) was “agreed well with the in vitro local distribution of (−)-[^3H]-vesamicol”. The “Radioactivity level blood 5 min” value ([1]; i.v. 20 MBq, blood, 5 min, % of administered radioactivity per gram of tissue, mean ± S.D. n = 4-6) was 0.45 ± 0.04%, the “Radioactivity level blood 15 min” value ([1]; i.v. 20 MBq, blood, 15 min, % of administered radioactivity per gram of tissue, mean ± S.D. n = 4-6) was 0.27 ± 0.03% and the “Radioactivity level blood 30 min” value ([1]; i.v. 20 MBq, blood, 30 min, % of administered radioactivity per gram of tissue, mean ± S.D. n = 4-6) was 0.24 ± 0.02%. For the same compound, the “Radioactivity level blood 60 min” value ([1]; i.v. 20 MBq, blood, 60 min, % of administered radioactivity per gram of tissue, mean ± S.D. n = 4-6) was 0.18 ± 0.02%, the “Radioactivity level brain 5 min” value ([1]; i.v. 20 MBq, brain, 5 min, % of administered radioactivity per gram of tissue, mean ± S.D. n = 4-6) was 5.47 ± 0.44% and the “Radioactivity level brain 15 min” value ([1]; i.v. 20 MBq, brain, 15 min, % of administered radioactivity per gram of tissue, mean ± S.D. n = 4-6) was 4.54 ± 0.54%. For the same compound, the “Radioactivity level brain 30 min” value ([1]; i.v. 20 MBq, brain, 30 min, % of administered radioactivity per gram of tissue, mean ± S.D. n = 4-6) was 4.71 ± 0.45%, the “Radioactivity level brain 60 min” value ([1]; i.v. 20 MBq, brain, 60 min, % of administered radioactivity per gram of tissue, mean ± S.D. n = 4-6) was 3.86 ± 0.28% and the “Radioactivity level heart 5 min” value ([1]; i.v. 20 MBq, heart, 5 min, % of administered radioactivity per gram of tissue, mean ± S.D. n = 4-6) was 3.37 ± 0.30%. For the same compound, the “Radioactivity level heart 15 min” value ([1]; i.v. 20 MBq, heart, 15 min, % of administered radioactivity per gram of tissue, mean ± S.D. n = 4-6) was 1.82 ± 0.19%, the “Radioactivity level heart 30 min” value ([1]; i.v. 20 MBq, heart, 30 min, % of administered radioactivity per gram of tissue, mean ± S.D. n = 4-6) was 1.52 ± 0.11% and the “Radioactivity level heart 60 min” value ([1]; i.v. 20 MBq, heart, 60 min, % of administered radioactivity per gram of tissue, mean ± S.D. n = 4-6) was 0.96 ± 0.02%. The “Radioactivity level kidney 5 min” value ([1]; i.v. 20 MBq, kidney, 5 min, % of administered radioactivity per gram of tissue, mean ± S.D. n = 4-6) was 11.10 ± 4.31%, the “Radioactivity level kidney 15 min” value ([1]; i.v. 20 MBq, kidney, 15 min, % of administered radioactivity per gram of tissue, mean ± S.D. n = 4-6) was 7.52 ± 0.40% and the “Radioactivity level kidney 30 min” value ([1]; i.v. 20 MBq, kidney, 30 min, % of administered radioactivity per gram of tissue, mean ± S.D. n = 4-6) was 6.02 ± 0.09%. For the same compound, the “Radioactivity level kidney 60 min” value ([1]; i.v. 20 MBq, kidney, 60 min, % of administered radioactivity per gram of tissue, mean ± S.D. n = 4-6) was 4.15 ± 0.50%, the “Radioactivity level liver 5 min” value ([1]; i.v. 20 MBq, liver, 5 min, % of administered radioactivity per gram of tissue, mean ± S.D. n = 4-6) was 2.58 ± 0.23% and the “Radioactivity level liver 15 min” value ([1]; i.v. 20 MBq, liver, 15 min, % of administered radioactivity per gram of tissue, mean ± S.D. n = 4-6) was 2.93 ± 0.38%. The “Radioactivity level liver 30 min” value ([1]; i.v. 20 MBq, liver, 30 min, % of administered radioactivity per gram of tissue, mean ± S.D. n = 4-6) was 3.22 ± 0.76%, the “Radioactivity level liver 60 min” value ([1]; i.v. 20 MBq, liver, 60 min, % of administered radioactivity per gram of tissue, mean ± S.D. n = 4-6) was 3.28 ± 0.32% and the “Radioactivity level lung 5 min” value ([1]; i.v. 20 MBq, lung, 5 min, % of administered radioactivity per gram of tissue, mean ± S.D. n = 4-6) was 16.55 ± 2.56%. The “Radioactivity level lung 15 min” value ([1]; i.v. 20 MBq, lung, 15 min, % of administered radioactivity per gram of tissue, mean ± S.D. n = 4-6) was 10.38 ± 2.48%, the “Radioactivity level lung 30 min” value ([1]; i.v. 20 MBq, lung, 30 min, % of administered radioactivity per gram of tissue, mean ± S.D. n = 4-6) was 8.74 ± 0.34% and the “Radioactivity level lung 60 min” value ([1]; i.v. 20 MBq, lung, 60 min, % of administered radioactivity per gram of tissue, mean ± S.D. n = 4-6) was 4.81 ± 0.76%. For the same compound, the “Radioactivity level muscle 5 min” value ([1]; i.v. 20 MBq, muscle, 5 min, % of administered radioactivity per gram of tissue, mean ± S.D. n = 4-6) was 1.57 ± 0.27%, the “Radioactivity level muscle 15 min” value ([1]; i.v. 20 MBq, muscle, 15 min, % of administered radioactivity per gram of tissue, mean ± S.D. n = 4-6) was 1.42 ± 0.44% and the “Radioactivity level muscle 30 min” value ([1]; i.v. 20 MBq, muscle, 30 min, % of administered radioactivity per gram of tissue, mean ± S.D. n = 4-6) was 1.18 ± 0.24%. The “Radioactivity level muscle 60 min” value ([1]; i.v. 20 MBq, muscle, 60 min, % of administered radioactivity per gram of tissue, mean ± S.D. n = 4-6) was 1.00 ± 0.16%, the “Radioactivity level pancreas 5 min” value ([1]; i.v. 20 MBq, pancreas, 5 min, % of administered radioactivity per gram of tissue, mean ± S.D. n = 4-6) was 8.44 ± 1.93% and the “Radioactivity level pancreas 15 min” value ([1]; i.v. 20 MBq, pancreas, 15 min, % of administered radioactivity per gram of tissue, mean ± S.D. n = 4-6) was 12.13 ± 2.23%. For the same compound, the “Radioactivity level pancreas 30 min” value ([1]; i.v. 20 MBq, pancreas, 30 min, % of administered radioactivity per gram of tissue, mean ± S.D. n = 4-6) was 11.53 ± 2.67%, the “Radioactivity level pancreas 60 min” value ([1]; i.v. 20 MBq, pancreas, 60 min, % of administered radioactivity per gram of tissue, mean ± S.D. n = 4-6) was 10.67 ± 1.22% and the “Radioactivity level small intestine 5 min” value ([1]; i.v. 20 MBq, small intestine, 5 min, % of administered radioactivity per gram of tissue, mean ± S.D. n = 4-6) was 6.19 ± 0.58%. The “Radioactivity level small intestine 15 min” value ([1]; i.v. 20 MBq, small intestine, 15 min, % of administered radioactivity per gram of tissue, mean ± S.D. n = 4-6) was 8.76 ± 1.66%, the “Radioactivity level small intestine 30 min” value ([1]; i.v. 20 MBq, small intestine, 30 min, % of administered radioactivity per gram of tissue, mean ± S.D. n = 4-6) was 8.48 ± 1.85% and the “Radioactivity level small intestine 60 min” value ([1]; i.v. 20 MBq, small intestine, 60 min, % of administered radioactivity per gram of tissue, mean ± S.D. n = 4-6) was 8.90 ± 0.50%. The “Radioactivity level spleen 5 min” value ([1]; i.v. 20 MBq, spleen, 5 min, % of administered radioactivity per gram of tissue, mean ± S.D. n = 4-6) was 4.97 ± 1.06%, the “Radioactivity level spleen 15 min” value ([1]; i.v. 20 MBq, spleen, 15 min, % of administered radioactivity per gram of tissue, mean ± S.D. n = 4-6) was 5.90 ± 0.51% and the “Radioactivity level spleen 30 min” value ([1]; i.v. 20 MBq, spleen, 30 min, % of administered radioactivity per gram of tissue, mean ± S.D. n = 4-6) was 5.56 ± 0.52%. For the same compound, the “Radioactivity level spleen 60 min” value ([1]; i.v. 20 MBq, spleen, 60 min, % of administered radioactivity per gram of tissue, mean ± S.D. n = 4-6) was 4.24 ± 0.35%, the brain accumulation ([1]; i.v., 5-60 min) was “retainable” and the “organ accumulation / exposure” value ([1]; i.v., 5-60 min) was “no organs showing particularly high accumulation”.
